Assay results from PMC4772116 (Scientific Reports, 2016).
Where a SMILES comes first, the peptide text is derived from it. Bridges are numbered along the chain shown (N, C = ends).

What was measured:
human α3β2 nAChR = human α3β2 nAChR (Homo sapiens, UniProt P17787+P32297); test: cell-based; assay type: cell-based
human α3β4 nAChR = human α3β4 nAChR (Homo sapiens, UniProt P30926+P32297); test: cell-based
Ac-AChBP = Ac-AChBP (Aplysia californica, UniProt Q8WSF8); test: biochemical; assay type: binding
Ac-AChBP, sequence (Q8WSF8 20-236 limits assumed): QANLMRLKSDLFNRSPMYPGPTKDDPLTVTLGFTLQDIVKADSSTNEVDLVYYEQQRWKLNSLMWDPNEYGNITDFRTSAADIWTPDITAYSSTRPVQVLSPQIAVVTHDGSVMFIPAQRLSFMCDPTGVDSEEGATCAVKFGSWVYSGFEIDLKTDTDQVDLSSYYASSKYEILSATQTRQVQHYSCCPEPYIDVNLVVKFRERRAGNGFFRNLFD

human α3β2 nAChR, sequence (P32297 32-505 limits assumed): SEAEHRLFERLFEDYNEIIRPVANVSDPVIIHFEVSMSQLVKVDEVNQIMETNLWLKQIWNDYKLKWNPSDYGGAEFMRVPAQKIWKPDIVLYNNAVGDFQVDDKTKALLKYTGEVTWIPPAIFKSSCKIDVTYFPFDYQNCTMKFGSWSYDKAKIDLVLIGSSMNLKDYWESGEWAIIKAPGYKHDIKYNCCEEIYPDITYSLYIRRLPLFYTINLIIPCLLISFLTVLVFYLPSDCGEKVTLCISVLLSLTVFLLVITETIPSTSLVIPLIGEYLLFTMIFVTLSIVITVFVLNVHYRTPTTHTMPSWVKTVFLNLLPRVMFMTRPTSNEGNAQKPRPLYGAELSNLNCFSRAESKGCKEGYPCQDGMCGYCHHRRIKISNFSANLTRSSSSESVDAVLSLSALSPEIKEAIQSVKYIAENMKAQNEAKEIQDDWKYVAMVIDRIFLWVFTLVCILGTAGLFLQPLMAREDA
human α3β2 nAChR, sequence (P17787 26-502 limits assumed): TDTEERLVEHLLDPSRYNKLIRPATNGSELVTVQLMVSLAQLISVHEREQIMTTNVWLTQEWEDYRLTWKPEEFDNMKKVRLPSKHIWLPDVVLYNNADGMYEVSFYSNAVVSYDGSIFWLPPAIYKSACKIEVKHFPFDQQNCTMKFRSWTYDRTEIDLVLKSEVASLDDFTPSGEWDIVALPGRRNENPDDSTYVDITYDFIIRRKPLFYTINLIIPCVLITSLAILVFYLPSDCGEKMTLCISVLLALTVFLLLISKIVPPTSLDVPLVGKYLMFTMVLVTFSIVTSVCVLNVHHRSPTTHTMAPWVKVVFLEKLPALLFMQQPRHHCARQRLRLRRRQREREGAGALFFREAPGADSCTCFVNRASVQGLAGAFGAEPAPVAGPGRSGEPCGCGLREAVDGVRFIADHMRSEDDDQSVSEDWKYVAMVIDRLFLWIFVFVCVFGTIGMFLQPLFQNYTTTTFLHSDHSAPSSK
human α3β4 nAChR, sequence (P32297 32-505 limits assumed): as the sequence (P32297 32-505 limits assumed) above
human α3β4 nAChR, sequence (P30926 22-498 limits assumed): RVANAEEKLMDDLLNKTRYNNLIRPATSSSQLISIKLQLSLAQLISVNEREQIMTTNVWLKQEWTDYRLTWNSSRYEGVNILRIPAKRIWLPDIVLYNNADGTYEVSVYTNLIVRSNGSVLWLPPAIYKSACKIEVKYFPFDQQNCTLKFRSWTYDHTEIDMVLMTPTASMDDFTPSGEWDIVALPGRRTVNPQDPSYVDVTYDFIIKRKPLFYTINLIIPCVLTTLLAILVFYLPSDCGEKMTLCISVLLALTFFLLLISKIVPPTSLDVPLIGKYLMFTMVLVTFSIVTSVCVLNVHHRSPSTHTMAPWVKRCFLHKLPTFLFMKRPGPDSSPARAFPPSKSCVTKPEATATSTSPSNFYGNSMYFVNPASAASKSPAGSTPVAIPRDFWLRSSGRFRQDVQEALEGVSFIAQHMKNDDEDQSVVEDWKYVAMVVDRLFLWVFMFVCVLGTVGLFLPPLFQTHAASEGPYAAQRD

| Structure (SMILES) | IC50 (human α3β2 nAChR) | IC50 (human α3β4 nAChR) | Decrease in the inhibition of α3β2 nAChR versus wild-type GIC (human α3β2 nAChR) | Increase in the IC50 value for Ac-AChBP versus wild-type GIC (Ac-AChBP) |
| --- | --- | --- | --- | --- |
| CC[C@H](C)[C@@H]1NC(=O)[C@H](Cc2c[nH]cn2)NC(=O)[C@H](CCC(N)=O)NC(=O)[C@H](C)NC(=O)[C@H](CC(N)=O)NC(=O)CNC(=O)[C@H](C)NC(=O)[C@@H]2CSSC[C@H](NC(=O)CN)C(=O)N[C@@H](CSSC[C@@H](C(N)=O)NC1=O)C(=O)N[C@@H](CO)C(=O)N[C@@H](Cc1c[nH]cn1)C(=O)N1CCC[C@H]1C(=O)N[C@@H](C)C(=O)N2 [GIC(N12A)] (H-GCCSHPACAGNAQHIC-NH2; disulfide 2-8, 3-16) | 1.98 µM | > 10 µM |  |  |
| CC[C@H](C)[C@@H]1NC(=O)[C@H](Cc2c[nH]cn2)NC(=O)[C@H](CCC(N)=O)NC(=O)[C@H](CC(N)=O)NC(=O)[C@H](CC(N)=O)NC(=O)CNC(=O)[C@H](C)NC(=O)[C@@H]2CSSC[C@H](NC(=O)CN)C(=O)N[C@@H](CSSC[C@@H](C(N)=O)NC1=O)C(=O)N[C@@H](CO)C(=O)N[C@@H](Cc1c[nH]cn1)C(=O)N1CCC[C@H]1C(=O)N[C@@H](CC(C)C)C(=O)N2 [GIC(A7L)] (H-GCCSHPLCAGNNQHIC-NH2; disulfide 2-8, 3-16) | > 10 µM | > 10 µM | more than 10,000 fold |  |
| CC[C@H](C)[C@@H]1NC(=O)[C@H](Cc2c[nH]cn2)NC(=O)[C@H](CCC(N)=O)NC(=O)[C@H](CC(N)=O)NC(=O)[C@H](CC(N)=O)NC(=O)CNC(=O)[C@H](C)NC(=O)[C@@H]2CSSC[C@H](NC(=O)CN)C(=O)N[C@@H](CSSC[C@@H](C(N)=O)NC1=O)C(=O)N[C@@H](CO)C(=O)N[C@@H](C)C(=O)N1CCC[C@H]1C(=O)N[C@@H](C)C(=O)N2 [GIC(H5A)] (H-GCCSAPACAGNNQHIC-NH2; disulfide 2-8, 3-16) | > 10 µM | > 10 µM | more than 10,000 fold | ~100 fold |
| CC[C@H](C)[C@@H]1NC(=O)[C@H](Cc2c[nH]cn2)NC(=O)[C@H](CCC(N)=O)NC(=O)[C@H](CC(N)=O)NC(=O)[C@H](CC(N)=O)NC(=O)CNC(=O)[C@H](C)NC(=O)[C@@H]2CSSC[C@H](NC(=O)CN)C(=O)N[C@@H](CSSC[C@@H](C(N)=O)NC1=O)C(=O)N[C@@H](CO)C(=O)N[C@@H](Cc1c[nH]cn1)C(=O)N1CCC[C@H]1C(=O)NCC(=O)N2 [GIC(A7G)] (H-GCCSHPGCAGNNQHIC-NH2; disulfide 2-8, 3-16) | 4.21 µM | > 10 µM |  |  |
| CC[C@H](C)[C@@H]1NC(=O)[C@H](Cc2c[nH]cn2)NC(=O)[C@H](C)NC(=O)[C@H](CC(N)=O)NC(=O)[C@H](CC(N)=O)NC(=O)CNC(=O)[C@H](C)NC(=O)[C@@H]2CSSC[C@H](NC(=O)CN)C(=O)N[C@@H](CSSC[C@@H](C(N)=O)NC1=O)C(=O)N[C@@H](CO)C(=O)N[C@@H](Cc1c[nH]cn1)C(=O)N1CCC[C@H]1C(=O)N[C@@H](C)C(=O)N2 [GIC(Q13A)] | 0.00841 µM | 0.66 µM |  |  |
| CC[C@H](C)[C@@H]1NC(=O)[C@H](Cc2c[nH]cn2)NC(=O)[C@H](CCC(N)=O)NC(=O)[C@H](CC(N)=O)NC(=O)[C@H](C)NC(=O)CNC(=O)[C@H](C)NC(=O)[C@@H]2CSSC[C@H](NC(=O)CN)C(=O)N[C@@H](CSSC[C@@H](C(N)=O)NC1=O)C(=O)N[C@@H](CO)C(=O)N[C@@H](Cc1c[nH]cn1)C(=O)N1CCC[C@H]1C(=O)N[C@@H](C)C(=O)N2 [GIC(N11A)] (H-GCCSHPACAGANQHIC-NH2; disulfide 2-8, 3-16) | 1.6 µM | > 10 µM |  |  |
